# Results reported in PubChem BioAssay (NCI).
#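 48-hour exposure; five concentrations; linearly interpolated endpoints. The concentration for full growth arrest is given as TGI.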
# Key:
# Assay in all cases: NCI tumour cell line growth inhibition, 48 h
# [1] = tested on: M14 melanoma
# [2] = tested on: OVCAR-8 ovarian
# [3] = tested on: UACC-62 melanoma
# [4] = tested on: NCI-H23 lung
# [5] = tested on: LOX IMVI melanoma
# [6] = tested on: MALME-3M melanoma
# [7] = tested on: SK-MEL-28 melanoma
# [8] = tested on: DU-145 prostate
# [9] = tested on: HCT-116 colon
# [10] = tested on: HL-60(TB) leukemia
# [11] = tested on: SF-268 CNS
# [12] = tested on: CAKI-1 renal
# [13] = tested on: EKVX NSCLC
# [14] = tested on: HCT-15 colon
# [15] = tested on: A549 NSCLC
# [16] = tested on: HOP-92 NSCLC
# [17] = tested on: HOP-62 NSCLC
# [18] = tested on: UACC-257 melanoma
# [19] = tested on: T-47D breast
# [20] = tested on: PC-3 prostate
# [21] = tested on: KM12 colon
# [22] = tested on: HCC-2998 colon
# [23] = tested on: NCI-H522 lung
# [24] = tested on: OVCAR-4 ovarian
# [25] = tested on: A498 renal
# [26] = tested on: RXF 393 renal
# [27] = tested on: MDA-MB-435
# [28] = tested on: IGROV1 ovarian
# [29] = tested on: RPMI-8226 leukemia
# [30] = tested on: 786-0 renal
# [31] = tested on: SK-OV-3 ovarian
# [32] = tested on: SNB-19 CNS
# [33] = tested on: NCI-H226 lung
# [34] = tested on: HT29 colon
# [35] = tested on: MOLT-4 leukemia
# [36] = tested on: TK-10 renal
# [37] = tested on: MDA-N
# [38] = tested on: CCRF-CEM leukemia
# [39] = tested on: SK-MEL-5 melanoma
# [40] = tested on: UO-31 renal
# [41] = tested on: HS 578T breast
# [42] = tested on: SN12C renal
# [43] = tested on: SK-MEL-2 melanoma
# [44] = tested on: ACHN renal
# [45] = tested on: COLO 205 colon
# [46] = tested on: NCI/ADR-RES ovarian
# [47] = tested on: OVCAR-5 ovarian
# [48] = tested on: SR leukemia
# [49] = tested on: MDA-MB-231 breast
# [50] = tested on: MCF7 breast
# [51] = tested on: SF-295 CNS
# [52] = tested on: NCI-H460 lung
# [53] = tested on: U251 CNS
# [54] = tested on: SNB-75 CNS
# [55] = tested on: K-562 leukemia
# [56] = tested on: SW-620 colon
# [57] = tested on: SF-539 CNS
# [58] = tested on: OVCAR-3 ovarian
smiles,measurement,setting,value
C[C@@H](c1ccccc1)N(CC#N)[C@H]1CCC[C@]1(O)/C=C/c1ccc2c(c1)OCO2,TGI,[1],> 25 µM
same,TGI,[2],> 25 µM
same,TGI,[3],7.67 µM
same,TGI,[4],> 25 µM
same,TGI,[5],> 25 µM
same,TGI,[6],> 25 µM
same,TGI,[7],> 25 µM
same,TGI,[8],> 25 µM
same,TGI,[9],> 25 µM
same,TGI,[10],> 25 µM
same,TGI,[11],> 25 µM
same,TGI,[12],> 25 µM
same,TGI,[13],> 25 µM
same,TGI,[14],> 25 µM
same,TGI,[15],> 25 µM
same,TGI,[16],> 25 µM
same,TGI,[17],> 25 µM
same,TGI,[18],> 25 µM
same,TGI,[19],> 25 µM
same,TGI,[20],> 25 µM
same,TGI,[21],> 25 µM
same,TGI,[22],> 25 µM
same,TGI,[23],> 25 µM
same,TGI,[24],> 25 µM
same,TGI,[25],6.98 µM
same,TGI,[26],> 25 µM
same,TGI,[27],> 25 µM
same,TGI,[28],> 25 µM
same,TGI,[29],> 25 µM
same,TGI,[30],> 25 µM
same,TGI,[31],> 25 µM
same,TGI,[32],> 25 µM
same,TGI,[33],> 25 µM
same,TGI,[34],> 25 µM
same,TGI,[35],> 25 µM
same,TGI,[36],> 25 µM
same,TGI,[37],> 25 µM
same,TGI,[38],> 25 µM
same,TGI,[39],> 25 µM
same,TGI,[40],> 25 µM
same,TGI,[41],> 25 µM
same,TGI,[42],> 25 µM
same,TGI,[43],> 25 µM
same,TGI,[44],8.04 µM
same,TGI,[45],> 25 µM
same,TGI,[46],> 25 µM
same,TGI,[47],> 25 µM
same,TGI,[48],> 25 µM
same,TGI,[49],> 25 µM
same,TGI,[50],11.5 µM
same,TGI,[51],> 25 µM
same,TGI,[52],> 25 µM
same,TGI,[53],> 25 µM
same,TGI,[54],> 25 µM
same,TGI,[55],> 25 µM
Oc1[nH]c2ccccc2c1N=Nc1nc(-c2ccccc2)cs1,TGI,[1],> 100 µM
same,TGI,[2],> 100 µM
same,TGI,[4],> 100 µM
same,TGI,[5],> 100 µM
same,TGI,[56],> 100 µM
same,TGI,[7],> 100 µM
same,TGI,[8],> 100 µM
same,TGI,[9],> 100 µM
same,TGI,[12],39.8 µM
same,TGI,[13],76.7 µM
same,TGI,[14],> 100 µM
same,TGI,[15],> 100 µM
same,TGI,[16],> 100 µM
same,TGI,[17],66.4 µM
same,TGI,[57],28.9 µM
same,TGI,[18],> 100 µM
same,TGI,[19],> 100 µM
same,TGI,[20],51.8 µM
same,TGI,[21],> 100 µM
same,TGI,[22],> 100 µM
same,TGI,[24],> 100 µM
same,TGI,[27],> 100 µM
same,TGI,[28],> 100 µM
same,TGI,[30],> 100 µM
same,TGI,[31],> 100 µM
same,TGI,[32],> 100 µM
same,TGI,[33],> 100 µM
same,TGI,[34],> 100 µM
same,TGI,[58],> 100 µM
same,TGI,[35],> 100 µM
same,TGI,[36],> 100 µM
same,TGI,[37],> 100 µM
same,TGI,[39],> 100 µM
same,TGI,[40],> 100 µM
same,TGI,[42],> 100 µM
same,TGI,[43],> 100 µM
same,TGI,[44],> 100 µM
same,TGI,[45],> 100 µM
same,TGI,[46],83 µM
same,TGI,[47],> 100 µM
same,TGI,[49],99.7 µM
same,TGI,[50],> 100 µM
same,TGI,[51],63.1 µM
same,TGI,[52],46.6 µM
same,TGI,[53],> 100 µM
same,TGI,[54],41.3 µM
COc1cc(O)c2c(=O)c(O)c(-c3ccc(O)c(O)c3)oc2c1,TGI,[1],42.6 µM
same,TGI,[2],75.9 µM
same,TGI,[3],> 100 µM
same,TGI,[5],31.9 µM
same,TGI,[56],53.7 µM
same,TGI,[6],69.3 µM
same,TGI,[7],> 100 µM
same,TGI,[8],25.5 µM
same,TGI,[9],45.5 µM
same,TGI,[10],12.8 µM
same,TGI,[11],73.7 µM
same,TGI,[12],15.6 µM
same,TGI,[13],> 100 µM
same,TGI,[14],> 100 µM
same,TGI,[15],50.3 µM
same,TGI,[16],45.1 µM
same,TGI,[17],63.2 µM
same,TGI,[18],46.1 µM
same,TGI,[19],> 100 µM
same,TGI,[20],> 100 µM
same,TGI,[22],34.1 µM
same,TGI,[23],25.5 µM
same,TGI,[24],37.6 µM
same,TGI,[25],14.9 µM
same,TGI,[27],85.5 µM
same,TGI,[28],> 100 µM
same,TGI,[29],> 100 µM
same,TGI,[31],56.9 µM
same,TGI,[32],> 100 µM
same,TGI,[34],48.4 µM
same,TGI,[58],21.8 µM
same,TGI,[35],> 100 µM
same,TGI,[36],63.1 µM
same,TGI,[37],> 100 µM
same,TGI,[38],33 µM
same,TGI,[39],58.6 µM
same,TGI,[40],42.1 µM
same,TGI,[44],24.9 µM
same,TGI,[45],32.5 µM
same,TGI,[46],32.9 µM
same,TGI,[47],47.8 µM
same,TGI,[48],> 100 µM
same,TGI,[49],95.8 µM
same,TGI,[50],60.7 µM
same,TGI,[51],72.3 µM
same,TGI,[52],20.6 µM
same,TGI,[53],24.7 µM
same,TGI,[55],> 100 µM
